Columns and labels:
[1] = Hepatic intrinsic clearance in liver microsomes; format: in vitro ADME; conditions: human, pH 7.4, human liver microsomes, in vitro clearance, read-out: HLM CL
Experimental: To 500 μl of 200 mM Na^+K^+phosphate buffer (pH 7.4), 100 μl of 1 mM EDTA solution was added followed by 100 μl of 2 mg protein/ml human liver microsomes. A 10 μl aliquot of test compound (20 mM stock in 50% acetonitrile) was diluted further with 40 μl of H2O (total assay volume […]. Assay mixture is incubated for 5 minutes at 37° C. The assay was initiated by addition of 250 μl of 4 mM NADPH solution. Incubation was continued at 37° C. Separate reaction mixtures were prepared for 0, 5, 10, 20, and 30 min durations. Individual reactions were halted by addition of 150 μl of 100% acetonitrile. Internal standard (10 μl of 100 ng/ml diazepam solution) was added. Concentration of the test compound in each separate reaction was measured using LC/MS/MS and a standard curve for the test compound according to standard procedures.
The hepatic intrinsic clearance in liver microsome was determined by the following procedure described by Davies and Morris (Davies, B. and Morris, T. (19930) Physiological parameters in laboratory animals and humans. Pharm Res. 10:1093-1095) detailing the relationship of in vitro clearance to physiological parameters in animals and human subjects.
The amount of compound remaining at each time point was expressed relative to the amount present in the initial (0 min) incubation. The relationship of relative amount vs. time was used to determine the half life of the compound in the microsome assay. The concentration independent rate constant, k1, was determined from rectangular hyperbolic fit:
where T is time (in minutes), from the relationship of relative amount vs. time. Alternatively, k1 was determined from a transform of the equation, where
Conversion to in vivo clearance was obtained from the relation (Davies and Morris, 1993):
where v=velocity of metabolism, [S] is the concentration of the compound, and volumes are expressed in mL.

memapsin 2 [2] = biological target: T1, memapsin 2 (Cricetulus griseus, UniProt G3IAK4); experiment: Cellular Aβ IC50 determination (Aβ40 sandwich ELISA); format: cell-based, Chinese hamster; conditions: CHO cells over-expressing human APP695 with London and Swedish mutations, 24 h, read-out: M2 IC50
T1 construct: endogenous in cells; host or cells: Chinese hamster ovary cells over-expressing human APP695 (London + Swedish)
Experimental: The potency of compounds against memapsin 2 activity was determined in a cellular assay of Aβ production. […] Chinese hamster ovary cells that over-express human APP695 with the London and Swedish mutations were seeded in multi-well plates at 10% confluency. Compounds are dissolved in DMSO to concentrations near 1 mM, and diluted into culture media to a final concentration near 4 μM (final 0.4% DMSO). Compounds were diluted serially and applied to cells in multi-well plates 48 h after seeding. Incubation was continued in 5% CO2 at 37° C. for 24 h. Aliquots were removed and assayed for […] using a sandwich ELISA (BioSource International). Amount of Aβ40 over the range of concentration of compounds, relative to control incubations, were fit to a 4-parameter IC50 model.

memapsin 2 [3] = biological target: memapsin 2 (Homo sapiens, UniProt P56817); experiment: Inhibition of memapsin 2 beta-secretase activity (fluorogenic substrate FS-2); format: biochemical; conditions: pH 4, 37° C., read-out: M2 Ki
Method in brief: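 Memapsin 2 pre-incubated with compound for 20 min at pH 4, 37° C. Reaction started with fluorogenic substrate FS-2, […], derived from Swedish-variant APP beta-secretase site; inhibition measured from fluorescence.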

CYP3A4 = biological target: T2, CYP3A4 (Homo sapiens, UniProt P08684); experiment: CYP3A4 inhibition (midazolam metabolism in human liver microsomes); format: in vitro ADME; conditions: substrate midazolam, read-out: CYP 3A4Ki
T2 construct: host or cells: human liver microsomes
Experimental: To evaluate the drug-drug interaction potential for compounds, the potency to inhibit the major metabolic cytochrome CYP450 isoform 3A4 was assessed. The inhibition constant Ki was determined for inhibition of the metabolism of midazolam, a CYP3A4 substrate.
CYP3A4 Ki assays were performed following a recently published protocol with slight modifications (Di, L., Kerns, E. H., Li, S. Q., and Carter, G. T. (2007) Comparison of cytochrome P450 inhibition assays for drug discovery using human liver microsomes with LC-MS, rhCYP450 isozymes with fluorescence, and double cocktail with LC-MS. International Journal of Pharmaceutics 335: 1-11). The P450 inhibition assay was performed in 96-well plates at 37.2° C. in a shaking incubator. The compounds were diluted from 5 mM stocks in 100% DMSO and incubated at seven final concentrations from 0.078 to 10 μM (0.1% DMSO in each final incubation), with human liver microsomes (HLM) at a final protein concentration of 0.1 mg/mL protein and a substrate concentration ranging from 1.25 to 10 μM.
The assay was standardized for both phosphate buffer (100 mM, pH 7.4) and the NADPH regenerating system (MgCl2, 3.3 mM; G6P, 3.3 mM; G6PD, 1 U/ml; NADP+, 1.3 mM). Eight replicate control samples (0.1% DMSO, no compound) were prepared. Assays (200 μL) were set up by mixing HLM+substrate stock, 10 μL of test article in 2% DMSO, and the substrate before initiating the reaction with the addition of the regenerating system mixture. Reactions were quenched following incubation for 20, 30 and 40 minutes as described following.
After incubation for the specified time in a humidified shaking incubator, 20 μL of the reaction mixture was removed and the reactions were terminated by adding 200 μL of cold acetonitrile. Samples were centrifuged at 1000×g for 15 minutes in Solvinert filter plate. The receptor plate was dried via speed vacuum at 40° C. The sample was reconstituted with a reconstitution buffer composed of 10% acetonitrile, 10% DMSO, 80% H2O with an internal standard added at a concentration of 100 ng/ml. MS-Analysis was completed using LC-MS/MS. Formation of 1′-hydroxymidazolam was measured by monitoring a specific SRM (342>203) transition for the CYP3A4 metabolite.
Data were expressed as the relative quantity of midazolam metabolite relative to control incubations. Initial velocities were obtained by multiplying the relative quantity by the initial substrate concentration and dividing by the incubation duration. Data were transformed to inverse of inivital velocity and expressed vs. inhibitor concentration [I] for determination of Ki by the Dixon method (Dixon, M. (1953) Biochemical Journal 55: 170-171) using where intercept [I]=−Ki was determined at multiple substrate concentrations.

T2 sequence (P08684 whole entry): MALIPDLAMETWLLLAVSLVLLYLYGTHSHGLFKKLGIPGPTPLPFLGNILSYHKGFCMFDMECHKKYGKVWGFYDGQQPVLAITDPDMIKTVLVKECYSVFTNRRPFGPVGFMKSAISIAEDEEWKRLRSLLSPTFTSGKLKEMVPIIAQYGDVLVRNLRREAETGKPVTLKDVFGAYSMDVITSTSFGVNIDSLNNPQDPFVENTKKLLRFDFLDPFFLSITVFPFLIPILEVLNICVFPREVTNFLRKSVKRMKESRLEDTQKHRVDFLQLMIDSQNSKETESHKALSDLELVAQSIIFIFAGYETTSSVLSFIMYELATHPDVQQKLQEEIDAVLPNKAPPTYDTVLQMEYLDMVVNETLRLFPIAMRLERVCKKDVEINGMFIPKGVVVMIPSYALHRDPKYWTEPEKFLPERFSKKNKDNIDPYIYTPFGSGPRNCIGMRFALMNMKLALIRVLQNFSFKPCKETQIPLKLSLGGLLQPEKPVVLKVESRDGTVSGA
Chain of memapsin 2 (Homo sapiens, UniProt P56817) (P56817 46-501): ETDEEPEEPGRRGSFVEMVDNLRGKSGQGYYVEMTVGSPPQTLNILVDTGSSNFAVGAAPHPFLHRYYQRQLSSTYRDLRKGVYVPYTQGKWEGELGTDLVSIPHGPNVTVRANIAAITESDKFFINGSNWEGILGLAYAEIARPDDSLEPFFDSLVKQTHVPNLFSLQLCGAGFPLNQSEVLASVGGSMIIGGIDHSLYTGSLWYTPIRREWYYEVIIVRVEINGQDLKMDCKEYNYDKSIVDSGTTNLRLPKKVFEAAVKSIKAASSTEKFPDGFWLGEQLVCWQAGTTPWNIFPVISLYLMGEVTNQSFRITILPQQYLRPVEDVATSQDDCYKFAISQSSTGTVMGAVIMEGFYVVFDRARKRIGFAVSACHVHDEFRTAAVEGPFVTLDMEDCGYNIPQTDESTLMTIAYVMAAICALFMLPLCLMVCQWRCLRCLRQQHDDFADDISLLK
T1 sequence (G3IAK4 22-501): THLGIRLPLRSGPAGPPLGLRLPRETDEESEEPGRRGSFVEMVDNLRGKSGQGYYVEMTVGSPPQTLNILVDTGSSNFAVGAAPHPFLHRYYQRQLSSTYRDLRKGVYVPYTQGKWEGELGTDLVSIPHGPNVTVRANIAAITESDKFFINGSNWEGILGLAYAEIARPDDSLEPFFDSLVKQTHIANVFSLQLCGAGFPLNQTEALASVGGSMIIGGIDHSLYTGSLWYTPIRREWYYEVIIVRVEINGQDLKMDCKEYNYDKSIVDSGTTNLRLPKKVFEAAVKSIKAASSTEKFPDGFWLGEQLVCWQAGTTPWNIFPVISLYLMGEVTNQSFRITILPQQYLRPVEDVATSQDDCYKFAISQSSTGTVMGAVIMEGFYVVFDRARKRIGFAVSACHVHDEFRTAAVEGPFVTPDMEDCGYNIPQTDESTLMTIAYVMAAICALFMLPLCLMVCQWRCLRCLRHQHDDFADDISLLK

CLint scaled at 200 μM [1] [mL/min/kg]	IC50 (memapsin 2 [2]) [nM]	Ki (memapsin 2 [3]) [nM]	Ki (CYP3A4) [nM]	Structure (SMILES)
> 700	< 500	< 250	1000 to 5000	Cc1coc([C@H]2CCCN2C(=O)c2cc(CF)cc(C(=O)N[C@@H](Cc3ccccc3)[C@H](O)CNCc3cccc(C(C)(C)C)c3)c2)n1 [2-7, N-((2S,3R)-4-(3-tert-butylbenzylamino)-3-hydroxy-1-phenylbutan-2-yl)-3-(fluoromethyl)-5-((R)-2-(4-methyloxazol-2-yl)pyrrolidine-1-carbonyl)benzamide, reference compound]
–	< 500	< 250	< 1000	Cc1cc(C(=O)N[C@@H](Cc2ccccc2)[C@H](O)CNCc2cncc(C(C)(C)C)c2)cc(C(=O)N2CCC[C@@H]2c2nc(C)co2)c1 [2-11, N-((2S,3R)-4-((5-tert-butylpyridin-3-yl)methylamino)-3-hydroxy-1-phenylbutan-2-yl)-3-methyl-5-((R)-2-(4-methyloxazol-2-yl)pyrrolidine-1-carbonyl)benzamide, reference compound]
–	< 500	< 250	< 1000	Cc1csc(CN(C(=O)c2cccc(C(=O)N[C@@H](Cc3ccccc3)[C@H](O)CNCc3cccc(C(F)(F)F)c3)c2)C2CC2)n1 [2-9, N1-cyclopropyl-N3-((2S,3R)-3-hydroxy-1-phenyl-4-(3-(trifluoromethyl)benzylamino)butan-2-yl)-N1-((4-methylthiazol-2-yl)methyl)isophthalamide, reference compound]
–	< 500	< 250	< 1000	Cc1csc([C@H]2CCCN2C(=O)c2cccc(C(=O)N[C@@H](Cc3ccccc3)[C@H](O)CNCc3cccc(C(C)(C)C)c3)c2)n1 [2-10, N-((2S,3R)-4-(3-tert-butylbenzylamino)-3-hydroxy-1-phenylbutan-2-yl)-3-((R)-2-(4-methylthiazol-2-yl)pyrrolidine-1-carbonyl)benzamide, reference compound]
> 700	< 500	< 250	–	C=C(C)c1cccc(CNC[C@@H](O)[C@H](Cc2ccccc2)NC(=O)c2cccc(C(=O)N3CCC[C@@H]3c3nc(C)co3)c2)c1 [2-6, N-((2S,3R)-3-hydroxy-1-phenyl-4-(3-(prop-1-en-2-yl)benzylamino)butan-2-yl)-3-((R)-2-(4-methyloxazol-2-yl)pyrrolidine-1-carbonyl)benzamide, reference compound]

Further lines, the molecule ahead of its results:

Structure (SMILES)	CLint scaled at 200 μM [1] [mL/min/kg]	IC50 (memapsin 2 [2]) [nM]	Ki (memapsin 2 [3]) [nM]	Ki (CYP3A4) [nM]
Cc1csc(CN(C)C(=O)c2cc(C(=O)N[C@@H](Cc3ccccc3)[C@H](O)[C@H]3CCCN3)cc(-c3ncco3)c2)n1 [1-15, N1-((1R,2S)-1-hydroxy-3-phenyl-1-((R)-pyrrolidin-2-yl)propan-2-yl)-N3-methyl-N3-((4-methylthiazol-2-yl)methyl)-5-(oxazol-2-yl)isophthalamide]	< 400	< 500	< 250	5000 to 10000
Cc1csc([C@H]2CCCN2C(=O)c2cc(C(=O)N[C@@H](Cc3ccccc3)[C@H](O)[C@H]3CCCN3)cc(N3CCOCC3)c2)n1 [1-33, N-((1R,2S)-1-hydroxy-3-phenyl-1-((R)-pyrrolidin-2-yl)propan-2-yl)-3-((R)-2-(4-methylthiazol-2-yl)pyrrolidine-1-carbonyl)-5-morpholinobenzamide]	–	> 1000	> 750	5000 to 10000
Cc1csc([C@H]2CCCN2C(=O)c2cc(C(=O)N[C@@H](Cc3ccccc3)[C@H](O)[C@H]3C[C@@H](OCc4ccccc4)CN3)cc(-c3ncco3)c2)n1 [1-52, N-((1R,2S)-1-((2R,4R)-4-(benzyloxy)pyrrolidin-2-yl)-1-hydroxy-3-phenylpropan-2-yl)-3-((R)-2-(4-methylthiazol-2-yl)pyrrolidine-1-carbonyl)-5-(oxazol-2-yl)benzamide]	–	< 500	< 250	1000 to 5000
Cc1csc([C@H]2CCCN2C(=O)c2cncc(C(=O)N[C@@H](Cc3ccccc3)[C@H](O)CNCc3cc(Cl)nc(N(C)C)c3)c2)n1 [2-1, N-((2S,3R)-4-((2-chloro-6-(dimethylamino)pyridin-4-yl)methylamino)-3-hydroxy-1-phenylbutan-2-yl)-5-((R)-2-(4-methylthiazol-2-yl)pyrrolidine-1-carbonyl)nicotinamide, reference compound]	> 700	< 500	< 250	–
Cc1csc([C@H]2CCCN2C(=O)c2cc(C(=O)N[C@@H](Cc3ccccc3)[C@H](O)[C@H]3CCCN3)cc(-c3cnccn3)c2)n1 [1-20, N-((1R,2S)-1-hydroxy-3-phenyl-1-((R)-pyrrolidin-2-yl)propan-2-yl)-3-((R)-2-(4-methylthiazol-2-yl)pyrrolidine-1-carbonyl)-5-(pyrazin-2-yl)benzamide]	–	< 500	< 250	> 10000
Cc1csc(CN(C)C(=O)c2cc(C(=O)N[C@@H](Cc3ccccc3)[C@H](O)[C@H]3CCCN3)cc(-c3cnco3)c2)n1 [1-12, N1-((1R,2S)-1-hydroxy-3-phenyl-1-((R)-pyrrolidin-2-yl)propan-2-yl)-N3-methyl-N3-((4-methylthiazol-2-yl)methyl)-5-(oxazol-5-yl)isophthalamide]	< 400	> 1000	< 250	–
Cc1csc([C@H]2CCCN2C(=O)c2cc(C(=O)N[C@@H](Cc3ccccc3)[C@H](O)[C@H]3CCCN3)cc(N3CCCC3=O)c2)n1 [1-39, N-((1R,2S)-1-hydroxy-3-phenyl-1-((R)-pyrrolidin-2-yl)propan-2-yl)-3-((R)-2-(4-methylthiazol-2-yl)pyrrolidine-1-carbonyl)-5-(2-oxopyrrolidin-1-yl)benzamide]	< 400	< 500	< 250	–
COc1cc(C(=O)N[C@@H](Cc2ccccc2)[C@H](O)[C@H]2CCCN2)cc(C(=O)N2CCC[C@@H]2c2nc(C)cs2)c1 [1-34, N-((1R,2S)-1-hydroxy-3-phenyl-1-((R)-pyrrolidin-2-yl)propan-2-yl)-3-methoxy-5-((R)-2-(4-methylthiazol-2-yl)pyrrolidine-1-carbonyl)benzamide]	–	> 1000	< 250	5000 to 10000

— patent US20120214802A1, “PYRROLIDINE COMPOUNDS WHICH INHIBIT BETA-SECRETASE ACTIVITY AND METHODS OF USE THEREOF” (priority 2009, published 2012)
